{"source": "patent US10953027B2", "about": "“Active agents and methods of their use for the treatment of metabolic disorders and nonalcoholic fatty liver disease” (Flagship Pioneering Innovations V, Inc., priority 2018, dated 2021)", "key": {"[1]": {"experiment": "Assay 1. Stability in Simulated Gastric Fluid (SGF)", "format": "in vitro ADME", "conditions": "1 μM, 37° C., SGF pH 1.6 with pepsin", "method": "Assay 1. Stability of acylated active agents in Simulated Gastric Fluid (SGF). This assay was used to assess the stability of an acylated active agent in a stomach.\nMedium was prepared by dissolving 2 g of sodium chloride in 0.6 L of ultrapure water (MilliQ®, Millipore Sigma, Darmstadt, Germany). The pH was adjusted to 1.6 with 1N hydrochloric acid, and the volume was then adjusted to 1 L with purified water.\n60 mg FaSSIF powder (Biorelevant™, London, UK) were dissolved in 500 mL buffer (above). Pepsin was added (0.1 mg/mL) (Millipore Sigma, Darmstadt, Germany), and the solution was stirred. The resulting SGF media were used fresh for each experiment.\nTest compounds were dissolved in DMSO stock to 1 mM. An aliquot of the DMSO stock solution was removed and diluted in the SGF Media in 15 mL falcon tubes to generate a compound concentration of 1 μM. A 1 mL aliquot was immediately removed and diluted once with 1 volume of acetonitrile for T0 timepoint. The mixture was sealed and mixed at 37° C. in an incubator. Aliquots (1 mL) were removed at regular intervals and immediately quenched by the addition of 1 volume of acetonitrile. The resulting samples were analyzed by LC/MS to determine degradation rates in SGF."}, "[2]": {"experiment": "Assay 2. Stability in Simulated Intestinal Fluid (SIF)", "format": "in vitro ADME", "conditions": "1 μM, 37° C., SIF pH 6.7 with pancreatin", "method": "Assay 2. Stability of acylated active agents in Simulated Intestinal Fluid (SIF). This assay was used to assess the stability of an acylated active agent in a small intestine.\nPhosphate buffer was prepared by dissolving 0.42 g of sodium hydroxide pellets and 3.95 g of monobasic sodium phosphate monohydrate and 6.19 g of sodium chloride in ultrapure water (MilliQ®, Millipore Sigma, Darmstadt, Germany). The pH was adjusted to 6.7 using aq. HCl and aq. NaOH, as necessary, and the solution was diluted with ultrapure water to produce 1 L of the pH 6.7 buffer.\n112 mg FaSSIF powder (Biorelevant™, London, UK) was dissolved in 50 mL of the pH 6.7 buffer. 2 to 3 mL of the resulting solution were then added to 500 mg pancreatin (Millipore Sigma, Darmstadt, Germany). The resulting mixture was agitated by finger tapping the vessel containing the mixture until milky suspension formed. At this time, the remainder of the 50 mL FaSSiF/pH 6.7 buffer solution was added. The resulting suspension was flipped upside down 10 times to produce SIF, which was used fresh.\nTest compounds were dissolved in DMSO stock to 1 mM. An aliquot of the DMSO stock solution was removed and diluted in the SIF media in 15 mL falcon tubes to produce a mixture with a tested compound concentration of 1 μM. A 1 mL aliquot was immediately removed and diluted once with 1 volume of acetonitrile for T0 timepoint. The mixture was sealed and agitated at 37° C. in an incubator. Aliquots (1 mL) were removed at regular intervals and immediately quenched by the addition of 1 volume of acetonitrile. The resulting samples were analyzed by LC/MS to determine degradation rates."}}}
{"compound": "O=C(CCc1c[nH]c2ccccc12)O[C@H]1OC[C@@H](OC(=O)CCc2c[nH]c3ccccc23)[C@@H](OC(=O)CCc2c[nH]c3ccccc23)[C@H]1OC(=O)CCc1c[nH]c2ccccc12", "note": "[Compound 182, (2R,3R,4R,5R)-3,4,5-tris({[3-(1H-indol-3-yl)propanoyl]oxy})oxan-2-yl 3-(1H-indol-3-yl)propanoate]", "values": [{"measurement": "Assay 1 (SGF) (% Remaining @ 1 hours)", "setting": "[1]", "value": "C (C: >75% of the tested compound remaining)"}, {"measurement": "Assay 2 (SIF) (% @ Remaining 4 hours)", "setting": "[2]", "value": "A (A: <25% of the tested compound remaining)"}]}
{"compound": "CCC(=O)O[C@H]1[C@H](OC(=O)CC)[C@H](OC(=O)Cc2c[nH]c3ccccc23)O[C@@H](C)[C@H]1OC(=O)CC", "note": "[Compound 150, (2S,3S,4R,5R,6S)-2-{[2-(1H-indol-3-yl)acetyl]oxy}-6-methyl-4,5-bis(propanoyloxy)oxan-3-yl Propanoate]", "values": [{"measurement": "Assay 1 (SGF) (% Remaining @ 1 hours)", "setting": "[1]", "value": "C (C: >75% of the tested compound remaining)"}, {"measurement": "Assay 2 (SIF) (% @ Remaining 4 hours)", "setting": "[2]", "value": "A (A: <25% of the tested compound remaining)"}]}
{"compound": "CC(=O)Oc1ccc(/C=C/c2cc(OC(C)=O)cc(OC(C)=O)c2)cc1", "note": "[Compound 18, [4-[(E)-2-(3,5-diacetoxyphenyl)vinyl]phenyl] acetate]", "values": [{"measurement": "Assay 1 (SGF) (% Remaining @ 1 hours)", "setting": "[1]", "value": "C (C: >75% of the tested compound remaining)"}, {"measurement": "Assay 2 (SIF) (% @ Remaining 4 hours)", "setting": "[2]", "value": "C (C: >75% of the tested compound remaining)"}]}
{"compound": "C[C@@H](O)CCOC(=O)c1cc(N)ccc1O", "note": "[Compound 39, [(3R)-3-hydroxybutyl] 5-amino-2-hydroxy-benzoate]", "values": [{"measurement": "Assay 1 (SGF) (% Remaining @ 1 hours)", "setting": "[1]", "value": "C (C: >75% of the tested compound remaining)"}, {"measurement": "Assay 2 (SIF) (% @ Remaining 4 hours)", "setting": "[2]", "value": "C (C: >75% of the tested compound remaining)"}]}
{"compound": "CCC(=O)O[C@@H]1[C@H](OC(=O)CC)[C@H](C)OC(O)[C@H]1OC(=O)CC", "note": "(stereo partly drawn) [Compound 156, (3S,4R,5R,6S)-2-hydroxy-6-methyl-4,5-bis(propanoyloxy)oxan-3-yl Propanoate]", "values": [{"measurement": "Assay 1 (SGF) (% Remaining @ 1 hours)", "setting": "[1]", "value": "C (C: >75% of the tested compound remaining)"}, {"measurement": "Assay 2 (SIF) (% @ Remaining 4 hours)", "setting": "[2]", "value": "A (A: <25% of the tested compound remaining)"}]}
{"compound": "C[C@@H]1O[C@H](OC(=O)Cc2c[nH]c3ccccc23)[C@H](OC(=O)Cc2c[nH]c3ccccc23)[C@H](OC(=O)Cc2c[nH]c3ccccc23)[C@H]1OC(=O)Cc1c[nH]c2ccccc12", "note": "[Compound 153, (2R,3R,4R,5S,6S)-3,4,5-tris({[2-(1H-indol-3-yl)acetyl]oxy})-6-methyloxan-2-yl 2-(1H-indol-3-yl)acetate]", "values": [{"measurement": "Assay 2 (SIF) (% @ Remaining 4 hours)", "setting": "[2]", "value": "A (A: <25% of the tested compound remaining)"}]}
{"compound": "CCC(=O)O[C@@H]1OC[C@H](OC(=O)CC)[C@H](OC(=O)CC)[C@H]1OC(=O)CC", "note": "[Compound 160, (2S,3R,4S,5S)-3,4,5-tris(propanoyloxy)oxan-2-yl Propanoate]", "values": [{"measurement": "Assay 1 (SGF) (% Remaining @ 1 hours)", "setting": "[1]", "value": "C (C: >75% of the tested compound remaining)"}]}
{"compound": "CCCC(=O)O[C@@H]1O[C@@H](C)[C@H](OC(=O)CCC)[C@@H](OC(=O)CCC)[C@H]1OC(=O)CCC", "note": "[Compound 152, (2S,3R,4R,5S,6S)-3,4,5-tris(butanoyloxy)-6-methyloxan-2-yl Butanoate]", "values": [{"measurement": "Assay 2 (SIF) (% @ Remaining 4 hours)", "setting": "[2]", "value": "A (A: <25% of the tested compound remaining)"}]}
{"compound": "CCCC(=O)O[C@@H]1[C@@H](OC(=O)CCC)[C@@H](Oc2ccc(N)cc2C(=O)O)OC[C@@H]1OC(=O)CCC", "note": "[Compound 42, 5-amino-2-[(2R,3R,4S,5S)-3,4,5-tri(butanoyloxy)tetrahydropyran-2-yl]oxy-benzoic Acid]", "values": [{"measurement": "Assay 2 (SIF) (% @ Remaining 4 hours)", "setting": "[2]", "value": "C (C: >75% of the tested compound remaining)"}]}
{"compound": "CCCC(=O)OCC1(OC(=O)CCC)OC[C@@H](OC(=O)CCC)[C@H](OC(=O)CCC)[C@@H]1OC(=O)CCC", "note": "(stereo partly drawn) [Compound 163, [(3S,4S,5R)-2,3,4,5-tetrakis(butanoyloxy)oxan-2-yl]methyl Butanoate]", "values": [{"measurement": "Assay 1 (SGF) (% Remaining @ 1 hours)", "setting": "[1]", "value": "C (C: >75% of the tested compound remaining)"}]}
{"compound": "CCC(=O)O[C@@H]1[C@@H](OC(=O)CC)[C@@H](OC(=O)CCc2c[nH]c3ccccc23)OC[C@H]1OC(=O)CC", "note": "[Compound 108, (2R,3R,4S,5R)-3,4,5-tris(propanoyloxy)oxan-2-yl 3-(1H-indol-3-yl)propanoate]", "values": [{"measurement": "Assay 1 (SGF) (% Remaining @ 1 hours)", "setting": "[1]", "value": "C (C: >75% of the tested compound remaining)"}]}
{"compound": "O=C(Cc1c[nH]c2ccccc12)O[C@@H]1OC[C@@H](OC(=O)Cc2c[nH]c3ccccc23)[C@@H](OC(=O)Cc2c[nH]c3ccccc23)[C@H]1OC(=O)Cc1c[nH]c2ccccc12", "note": "[Compound 172, (2S,3R,4R,5R)-3,4,5-tris({[2-(1H-indol-3-yl)acetyl]oxy})oxan-2-yl 2-(1H-indol-3-yl)acetate]", "values": [{"measurement": "Assay 2 (SIF) (% @ Remaining 4 hours)", "setting": "[2]", "value": "C (C: >75% of the tested compound remaining)"}]}
{"compound": "O=C(CCCc1ccccc1)Oc1ccc(/C=C/c2cc(OC(=O)CCCc3ccccc3)cc(OC(=O)CCCc3ccccc3)c2)cc1", "note": "[Compound 2, [4-[(E)-2-[3,5-bis(4-phenylbutanoyloxy)phenyl]vinyl]phenyl] 4-phenylbutanoate]", "values": [{"measurement": "Assay 2 (SIF) (% @ Remaining 4 hours)", "setting": "[2]", "value": "C (C: >75% of the tested compound remaining)"}]}
{"compound": "CCCCCCCCCC(=O)Oc1ccc(/C=C/c2cc(OC(=O)CCCCCCCCC)cc(OC(=O)CCCCCCCCC)c2)cc1", "note": "[Compound 12, [4-[(E)-2-[3,5-di(decanoyloxy)phenyl]vinyl]phenyl] decanoate]", "values": [{"measurement": "Assay 1 (SGF) (% Remaining @ 1 hours)", "setting": "[1]", "value": "C (C: >75% of the tested compound remaining)"}]}
{"compound": "CCCC(=O)O[C@@H]1[C@@H](OC(=O)CCC)[C@@H](Oc2ccc(N)cc2C(=O)O)OC[C@H]1OC(=O)CCC", "note": "[Compound 204, 5-amino-2-[(2R,3R,4S,5R)-3,4,5-tri(butanoyloxy)tetrahydropyran-2-yl]oxy-benzoic Acid]", "values": [{"measurement": "Assay 2 (SIF) (% @ Remaining 4 hours)", "setting": "[2]", "value": "B (B: 25-75% of the tested compound remaining)"}]}
{"compound": "C[C@@H]1CCOC(C(=O)Oc2ccc(/C=C/c3cc(OC(=O)C4OCC[C@@H](C)O4)cc(OC(=O)C4OCC[C@@H](C)O4)c3)cc2)O1", "note": "(stereo partly drawn) [Compound 258, 3-[(4R)-4-methyl-1,3-dioxane-2-carbonyloxy]-5-[(1E)-2-{4-[(4R)-4-methyl-1,3-dioxane-2-carbonyloxy]phenyl}ethenyl]phenyl (4R)-4-methyl-1,3-dioxane-2-carboxylate]", "values": [{"measurement": "Assay 1 (SGF) (% Remaining @ 1 hours)", "setting": "[1]", "value": "A (A: <25% of the tested compound remaining)"}]}
{"compound": "CCCC(=O)O[C@H]1O[C@@H](C)[C@H](OC(=O)CCC)[C@@H](OC(=O)CCC)[C@H]1OC(=O)CCC", "note": "[Compound 151, (2R,3R,4R,5S,6S)-3,4,5-tris(butanoyloxy)-6-methyloxan-2-yl Butanoate]", "values": [{"measurement": "Assay 2 (SIF) (% @ Remaining 4 hours)", "setting": "[2]", "value": "A (A: <25% of the tested compound remaining)"}]}
{"compound": "CCCCCCCC(=O)Oc1ccc(/C=C/c2cc(OC(=O)CCCCCCC)cc(OC(=O)CCCCCCC)c2)cc1", "note": "[Compound 11, [4-[(E)-2-[3,5-di(octanoyloxy)phenyl]vinyl]phenyl] octanoate]", "values": [{"measurement": "Assay 1 (SGF) (% Remaining @ 1 hours)", "setting": "[1]", "value": "C (C: >75% of the tested compound remaining)"}]}
{"compound": "C[C@@H]1CCO[C@H](C(=O)Oc2ccc(/C=C/c3cc(O)cc(OC(=O)[C@H]4OCC[C@@H](C)O4)c3)cc2)O1", "note": "[Compound 256, 4-[(1E)-2-{3-hydroxy-5-[(2S,4R)-4-methyl-1,3-dioxane-2-carbonyloxy]phenyl}ethenyl]phenyl (2S,4R)-4-methyl-1,3-dioxane-2-carboxylate]", "values": [{"measurement": "Assay 1 (SGF) (% Remaining @ 1 hours)", "setting": "[1]", "value": "A (A: <25% of the tested compound remaining)"}]}
{"compound": "CCCC(=O)O[C@H]1OC[C@@H](OC(=O)CCC)[C@H](OC(=O)CCC)[C@H]1OC(=O)CCC", "note": "[Compound 191, (2R,3R,4S,5R)-3,4,5-tris(butanoyloxy)oxan-2-yl Butanoate]", "values": [{"measurement": "Assay 2 (SIF) (% @ Remaining 4 hours)", "setting": "[2]", "value": "C (C: >75% of the tested compound remaining)"}]}
{"compound": "C[C@@H]1O[C@@H](OC(=O)Cc2c[nH]c3ccccc23)[C@H](OC(=O)Cc2c[nH]c3ccccc23)[C@H](OC(=O)Cc2c[nH]c3ccccc23)[C@H]1OC(=O)Cc1c[nH]c2ccccc12", "note": "[Compound 154, (2S,3R,4R,5S,6S)-3,4,5-tris({[2-(1H-indol-3-yl)acetyl]oxy})-6-methyloxan-2-yl 2-(1H-indol-3-yl)acetate]", "values": [{"measurement": "Assay 2 (SIF) (% @ Remaining 4 hours)", "setting": "[2]", "value": "A (A: <25% of the tested compound remaining)"}]}
{"compound": "CCCC(=O)Nc1ccc(O[C@@H]2OC[C@@H](OC(=O)CCC)[C@H](OC(=O)CCC)[C@H]2OC(=O)CCC)c(C(=O)O)c1", "note": "[Compound 229, 5-butanamido-2-{[(2S,3R,4S,5R)-3,4,5-tris(butanoyloxy)oxan-2-yl]oxy}benzoic Acid]", "values": [{"measurement": "Assay 2 (SIF) (% @ Remaining 4 hours)", "setting": "[2]", "value": "A (A: <25% of the tested compound remaining)"}]}
{"compound": "CCC(=O)O[C@H]1[C@H](OC(=O)CC)[C@H](OC(=O)/C=C/c2c[nH]c3ccccc23)O[C@@H](C)[C@H]1OC(=O)CC", "note": "[Compound 148, (2S,3S,4R,5R,6S)-6-methyl-3,4,5-tris(propanoyloxy)oxan-2-yl (2E)-3-(1H-indol-3-yl)prop-2-enoate]", "values": [{"measurement": "Assay 1 (SGF) (% Remaining @ 1 hours)", "setting": "[1]", "value": "C (C: >75% of the tested compound remaining)"}]}
